The values that follow come from patent US4684649A, “Quinoxaline derivatives useful for treatment and prophylaxis of swine dysentery and as animal growth promotants” (priority 1985, dated 1987).

The subject of data set [1] is Salmonella Typhimurium TA 1538. Nature of the data set: Ames test, in the absence of microsomial extract, strain TA 1538. The class given is cell-based. The source says:
(§1) Mutation Test determined according to the "Ames test"
(§2) (B.N. Ames et al. Mutation Research 31, page 347, 1975).
(§3) The compound 2-[bis-(1'-hydroxy-3'-t-butyl-4'-methoxy-phenyl-2')-methyl-quinoxaline-1,4-dioxide prepared according to Example 1 was submitted to the Ames test showing the results summarized in the following two tables: […]
On the technique in general: In the Ames test, an excess of revertant colonies over the control signals mutagenicity.

Data set [2] has as its system Salmonella Typhimurium TA 98. The experiment in a line: Ames test, in the presence of microsomial extract, strain TA 98. Type of data set: cell-based.
Source text: as §1, §2, §3

Data set [3] has as its system Salmonella Typhimurium TA 100. The experiment in a line: Ames test, in the absence of microsomial extract, strain TA 100. Type of data set: cell-based.
Source text: as §1, §2, §3

A further data set has as its system Treponema hyodysenterae. The experiment in a line: medicated feed in pigs exposed to Treponema hyodysenterae infections (swine dysentery). The class given is in vivo. The source says:
Compound of Example 1 was mixed with the swine balanced feed described on page 8 at the ratio of 200 grams/ton. A group of 30 pigs was fed with this medicated diet. An equivalent group of pigs was used as control. The two groups were stabled in pigsties where infections of Treponema hyodysenterae have been observed. No one of the animals under treatment was getting ill, while the 50% of the untreated animals in the control group was clearly showing typical symptoms of swine dysentery.

Data set [4] relates to Salmonella Typhimurium TA 100. The experiment in a line: Ames test, in the presence of microsomial extract, strain TA 100. The class given is cell-based.
Source text: as §1, §2, §3

A further data set deals with Treponema hyodysenteriae. Nature of the data set: in vitro antibacterial activity (MIC) against Treponema hyodysenteriae. The class given is cell-based. The note with it: Brachyspira hyodysenteriae, growth medium with about 5% bovine blood and about 3% tryptose agar. Here is the method: MIC's against Treponema hyodysenteriae were determined by spreading appropriate dilutions of the microorganism on a growth medium containing about 5% bovine blood and about 3% tryptose agar.
Among the compounds of structure I subjected to in vitro screening were the following in which R and R1 have the above meaning.

Data set [5] can be described thus: growth promotion and feed efficiency in pigs. Type of data set: in vivo. As to conditions: 28 days, 200 grams/ton in diet. The source says: The efficacy of compound of Example 1 in promoting growth and improving the feed efficiency is illustrated below. 20 healthy pigs of same age and of average same weight were divided into two groups. One group of 10 pigs served as control and was fed a basal non-supplemented diet, the other group of 10 pigs received the same basal diet, but supplemented with 200 grams/ton of compound of Example 1.

The subject of data set [6] is Salmonella Typhimurium TA 1535. Nature of the data set: Ames test, in the absence of microsomial extract, strain TA 1535. Type of data set: cell-based.
Source text: as §1, §2, §3

Data set [7] deals with Salmonella Typhimurium TA 1535. The experiment in a line: Ames test, in the presence of microsomial extract, strain TA 1535. Type of data set: cell-based.
Source text: as §1, §2, §3

The test system of data set [8] is Salmonella Typhimurium TA 98. The experiment in a line: Ames test, in the absence of microsomial extract, strain TA 98. Type of data set: cell-based.
Source text: as §1, §2, §3

The subject of data set [9] is Salmonella Typhimurium TA 1538. The experiment in a line: Ames test, in the presence of microsomial extract, strain TA 1538. The class given is cell-based.
Source text: as §1, §2, §3

The subject of the next data set is Salmonella Typhimurium. The note with it: Ames test; prior art compound; cited from earlier work.

≈ marks a conversion by molar mass, not a printed value.

By MIC is commonly meant the lowest concentration that inhibits growth of the organism. A higher MIC goes with weaker potency. In the case of `COc1ccc(O)c(C(c2c(O)ccc(OC)c2C(C)(C)C)c2c[n+]([O-])c3ccccc3[n+]2[O-])c1C(C)(C)C` [Example 1, 2-[bis(1'-hydroxy-3'-t-butyl-4'-methoxy-phenyl-2')-methyl]-quinoxaline-1,4-dioxide], the “Number of mutating colonies/plate” value worked out at 11 mutating colonies/plate in data set [1] (TA 1538, 10 mcg); 16 mutating colonies/plate in [1] (TA 1538, 30 mcg); 15 mutating colonies/plate in data set [1] (TA 1538, 100 mcg); 10 mutating colonies/plate in data set [1] (TA 1538, 300 mcg); 17 mutating colonies/plate in [1] (TA 1538, 600 mcg); 17 mutating colonies/plate in [1] (TA 1538, 1000 mcg). Further, the “Number of mutating colonies/plate” value came out at 30 mutating colonies/plate in data set [2] (TA 98, 10 mcg); 27 mutating colonies/plate in data set [2] (TA 98, 30 mcg); 24 mutating colonies/plate in data set [2] (TA 98, 100 mcg); 20 mutating colonies/plate in data set [2] (TA 98, 300 mcg); 24 mutating colonies/plate in data set [2] (TA 98, 600 mcg); 28 mutating colonies/plate in [2] (TA 98, 1000 mcg). For the same compound, the “Number of mutating colonies/plate” value in data set [3] (TA 100, 10 mcg) came to 168 mutating colonies/plate; in data set [3] (TA 100, 30 mcg), 165 mutating colonies/plate; in data set [3] (TA 100, 100 mcg) it was 151 mutating colonies/plate; in data set [3] (TA 100, 300 mcg), 162 mutating colonies/plate; in data set [3] (TA 100, 600 mcg), 177 mutating colonies/plate; in [3] (TA 100, 1000 mcg), 142 mutating colonies/plate. Moreover, the “Number of mutating colonies/plate” value in data set [4] (TA 100, 10 mcg) is on record as 158 mutating colonies/plate; in [4] (TA 100, 30 mcg) it was 143 mutating colonies/plate; in data set [4] (TA 100, 100 mcg), 135 mutating colonies/plate; in data set [4] (TA 100, 300 mcg), 174 mutating colonies/plate; in data set [4] (TA 100, 600 mcg), 175 mutating colonies/plate; in data set [4] (TA 100, 1000 mcg), 125 mutating colonies/plate. Besides, the “Number of mutating colonies/plate” value in data set [6] (TA 1535, 10 mcg) amounted to 15 mutating colonies/plate; in data set [6] (TA 1535, 30 mcg) it was 12 mutating colonies/plate; in data set [6] (TA 1535, 100 mcg), 9 mutating colonies/plate; in data set [6] (TA 1535, 300 mcg) it was 13 mutating colonies/plate; in data set [6] (TA 1535, 600 mcg), 25 mutating colonies/plate; in data set [6] (TA 1535, 1000 mcg), 16 mutating colonies/plate. Moreover, the “Number of mutating colonies/plate” value stood at 23 mutating colonies/plate in data set [7] (TA 1535, 10 mcg); 26 mutating colonies/plate in data set [7] (TA 1535, 30 mcg); 22 mutating colonies/plate in data set [7] (TA 1535, 100 mcg); 16 mutating colonies/plate in [7] (TA 1535, 300 mcg); 22 mutating colonies/plate in data set [7] (TA 1535, 600 mcg); 20 mutating colonies/plate in data set [7] (TA 1535, 1000 mcg). In addition, the “Number of mutating colonies/plate” value is recorded as 25 mutating colonies/plate in [8] (TA 98, 10 mcg); 24 mutating colonies/plate in [8] (TA 98, 30 mcg); 27 mutating colonies/plate in [8] (TA 98, 100 mcg); 24 mutating colonies/plate in data set [8] (TA 98, 300 mcg); 27 mutating colonies/plate in data set [8] (TA 98, 600 mcg); 27 mutating colonies/plate in [8] (TA 98, 1000 mcg). Further, the “Number of mutating colonies/plate” value stood at 16 mutating colonies/plate in [9] (TA 1538, 10 mcg); 14 mutating colonies/plate in data set [9] (TA 1538, 30 mcg); 15 mutating colonies/plate in data set [9] (TA 1538, 100 mcg); 8 mutating colonies/plate in [9] (TA 1538, 300 mcg); 18 mutating colonies/plate in [9] (TA 1538, 600 mcg); 14 mutating colonies/plate in data set [9] (TA 1538, 1000 mcg). Moreover, the “animals under treatment getting ill” value in the data set on Treponema hyodysenterae (200 grams/ton of feed, 30 pigs, control group 50% ill) is listed as “No one”. Moreover, the “recovery of the infected animals” value with Treponema hyodysenterae (after 2 weeks of treatment with medicated feed, 200 grams/ton) was “recovered completely”. The compound further came in with a minimum inhibitory concentration (MIC) against Treponema hyodysenteriae of 0.1 µg/mL (≈ 0.188 µM). Besides, the solubility entry in “solubility” (in acetone) is “slightly soluble”; in “solubility” (in benzene), “slightly soluble”; in “solubility” (in dimethylformamide), “soluble”; in “solubility” (in dioxane) it was “soluble”; in the data set “solubility” (in methanol) it was “slightly soluble”; in the data set “solubility” (in tetrahydrofuran), “soluble”. Further, the solubility result in “solubility” (in water) is reported as “very scarcely soluble”. For the same compound, the “increase in feed efficiency over the controls” value in [5] is 5,5%. Further, the “body weight increase over control (heavier on average)” value in data set [5] (versus control ration) is reported as 4,6%.
In turn, `COc1ccc(O)c(C(c2c(O)ccc(OC)c2C(C)C)c2c[n+]([O-])c3ccccc3[n+]2[O-])c1C(C)C` [Example 2, 2-[bis(1'-hydroxy-3'-i-propyl-4'-methoxy-phenyl-2')-methyl]-quinoxaline-1,4-dioxide] gave a minimum inhibitory concentration (MIC) against Treponema hyodysenteriae of 0.9 µg/mL (≈ 1.78 µM).
For the compound `COC(=O)NN=Cc1c[n+]([O-])c2ccccc2[n+]1[O-]` [carbadox, 2-formyl-quinoxaline-1,4-dioxide carbomethoxyhydrazone], in the data set with Salmonella Typhimurium, the mutagenic effect result is given as “substantial mutagenic effect”.
For `[N-]=[N+]=[N-]` [sodium azide, reference compound], the “Number of mutating colonies/plate” value in [2] (TA 98, 10 mcg) stood at 1803 mutating colonies/plate; in [6] (TA 1535, 10 mcg), 1006 mutating colonies/plate; in data set [9] (TA 1538, 10 mcg), 2258 mutating colonies/plate.
